Measurements reported in PMC8452690, “Structural basis for small molecule targeting of Doublecortin Like Kinase 1 with DCLK1-IN-1” (Communications Biology, 2021).
Numbering of substitutions follows the chain as printed. Marks after values point to notes of the source that are not given here.

What was measured:
[1] = molecular target: T1, DCLK1-FL1Δ D511N (Homo sapiens, UniProt O15075, D511N); assay: SPR binding to immobilised DCLK1-FL1Δ D511N (non-phosphorylated); conditions: for Kd / kon, kinetic fitting: SPR; for kon, kinetic fitting: DCLK1 FL1Δ D511N; for koff: read-out: koff, kinetic fitting; for kon: read-out: kon (Fig. 5c)
T1 construct: DCLK1-FL1Δ (residues 50-686); 8XHis tag with TEV protease cleavage site (N); made in house; host or cells: Escherichia coli C41(DE3)
T1 sequence (O15075 50-686 D511N): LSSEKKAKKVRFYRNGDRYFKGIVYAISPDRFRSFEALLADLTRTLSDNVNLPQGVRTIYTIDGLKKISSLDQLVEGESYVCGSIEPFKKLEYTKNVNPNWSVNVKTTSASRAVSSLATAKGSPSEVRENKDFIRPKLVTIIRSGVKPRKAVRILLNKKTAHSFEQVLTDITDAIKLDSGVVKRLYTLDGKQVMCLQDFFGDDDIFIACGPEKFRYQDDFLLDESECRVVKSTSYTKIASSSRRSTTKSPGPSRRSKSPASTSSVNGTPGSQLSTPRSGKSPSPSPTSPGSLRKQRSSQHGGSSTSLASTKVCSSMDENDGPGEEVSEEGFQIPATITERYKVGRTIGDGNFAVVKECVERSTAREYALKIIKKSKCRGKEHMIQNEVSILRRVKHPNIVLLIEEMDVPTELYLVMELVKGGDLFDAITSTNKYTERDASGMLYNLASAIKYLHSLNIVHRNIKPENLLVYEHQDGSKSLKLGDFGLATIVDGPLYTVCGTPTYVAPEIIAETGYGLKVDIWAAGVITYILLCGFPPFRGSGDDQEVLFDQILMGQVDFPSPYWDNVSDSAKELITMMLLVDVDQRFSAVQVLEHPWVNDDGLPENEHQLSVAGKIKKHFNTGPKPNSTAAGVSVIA
Protocol: (§1) SPR studies were carried out on a Biacore 2000 instrument (Cytivia). Proteins were immobilised at 25 °C using standard amine coupling to a CM5 chip (Cytivia) in immobilisation buffer consisting of 10 mM HEPES pH 7.4, 150 mM NaCl, 1 mM TCEP, 0.005% Tween P20, 1% (v/v) DMSO. To the active flow, cells were coupled either DCLK1-FL1Δ D511N or WT to a final density of approximately 7000 RU, followed by surface deactivation with 1 M ethanolamine. For each protein, coupling was performed at a concentration of 2 µM protein in 10 mM sodium acetate buffer pH 4.0, 1% (v/v) DMSO final, in the presence 10 µM of the moderate affinity compound FMF-03-149-01 (IC50 ~400 nM)[28] to help to stabilise the kinase domain during immobilsiation at low pH. A blank immobilisation was performed on the reference flow cell.
(§2) Binding experiments were performed at 18 °C in running buffer consisting of 20 mM HEPES, pH 7.4, 150 mM NaCl, 1 mM tris(2-carboxyethyl)phosphine (TCEP), 0.005% (v/v) Tween-P20, and 2% (v/v) DMSO. Compounds (10 mM stocks in 100% DMSO) were diluted in DMSO to 500 µM (DCLK1-NEG) or 25 µM (all other compounds) then in running buffer (without DMSO) to achieve the starting concentration with a final DMSO concentration of 2% (v/v). Samples were then serially titrated in running buffer containing 2% (v/v) DMSO to prepare each final concentration series (seven-point, three-fold serial dilution, 10 µM−13.7 nM for DCLK1-NEG, or 500−0.68 nM for all other compounds). Solutions were injected in multi-cycle format (in duplicate) without regeneration (contact time 80 s, flow rate 75 μL/min, dissociation time 600 s), with an extra wash (50% DMSO) after each injection.
(§3) Steady-state/kinetic binding data were fitted using the S200 BIAevaluation software (GE Healthcare). Sensorgrams from reference surfaces and blank injections were subtracted from the raw data (double-referencing), followed by solvent correction. Kinetic rate constants (kon and koff values) were obtained by fitting to 1:1 Langmuir binding model. Reported binding data represent mean ± SEM for three or four independent experiments. The dissociative half-life life (t1/2) for each inhibitor complex with DCLK1 was calculated from the fitted dissociation rate constant (koff), according to the equation 1 (t1/2 = ln(2)/koff.)

[2] = molecular target: T2, DCLK1-FL1Δ WT (Homo sapiens, UniProt O15075); assay: SPR binding to immobilised DCLK1-FL1Δ WT (phosphorylated); conditions: for Kd / kon, kinetic fitting: SPR, mean ± SEM; for Kd: 18 °C, DCLK1 FL1Δ WT immobilised; for kon, kinetic fitting: DCLK1 FL1Δ WT; for koff: read-out: koff, kinetic fitting
T2 sequence (O15075 50-686 isoform O15075-2): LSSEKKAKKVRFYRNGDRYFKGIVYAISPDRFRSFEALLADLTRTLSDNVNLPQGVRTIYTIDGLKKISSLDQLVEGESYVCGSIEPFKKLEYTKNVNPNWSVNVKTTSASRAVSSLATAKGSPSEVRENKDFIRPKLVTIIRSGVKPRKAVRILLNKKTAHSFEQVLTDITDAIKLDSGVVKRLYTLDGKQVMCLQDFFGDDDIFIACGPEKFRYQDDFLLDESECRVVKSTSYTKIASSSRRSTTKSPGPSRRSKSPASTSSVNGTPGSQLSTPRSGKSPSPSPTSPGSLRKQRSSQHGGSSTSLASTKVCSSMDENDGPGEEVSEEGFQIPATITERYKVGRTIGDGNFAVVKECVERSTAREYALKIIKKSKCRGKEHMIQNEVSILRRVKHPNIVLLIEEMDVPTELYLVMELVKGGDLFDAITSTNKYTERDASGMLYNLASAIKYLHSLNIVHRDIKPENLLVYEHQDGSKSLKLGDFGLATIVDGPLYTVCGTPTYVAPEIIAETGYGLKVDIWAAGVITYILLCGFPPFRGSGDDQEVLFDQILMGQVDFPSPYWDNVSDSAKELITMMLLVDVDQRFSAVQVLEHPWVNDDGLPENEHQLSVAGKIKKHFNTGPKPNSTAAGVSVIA
Protocol: as §1, §2, §3

[3] = molecular target: T3, DCLK1-KD (residues 372-649) (Homo sapiens, UniProt O15075); assay: Thermal shift stability assay, DCLK1-KD; format: binding; conditions: compound titration 2.5 to 40 μM
T3 construct: the DCLK1 kinase domain (DCLK1-KD; residues 372-649) by carrying out thermal stability assays; 8XHis tag with TEV protease cleavage site (N); made in house; host or cells: Escherichia coli C41(DE3)
T3 sequence (O15075 372-649 isoform O15075-2): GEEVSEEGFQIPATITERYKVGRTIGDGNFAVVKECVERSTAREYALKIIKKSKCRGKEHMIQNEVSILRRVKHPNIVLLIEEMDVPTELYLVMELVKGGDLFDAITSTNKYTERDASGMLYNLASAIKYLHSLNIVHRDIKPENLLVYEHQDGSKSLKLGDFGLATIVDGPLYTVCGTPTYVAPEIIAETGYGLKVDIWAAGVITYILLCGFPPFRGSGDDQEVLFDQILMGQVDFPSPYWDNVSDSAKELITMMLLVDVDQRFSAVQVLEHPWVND
Protocol: (§4) DCLK1 proteins were diluted in 150 mM NaCl, 20 mM Tris pH 8.0, 1 mM DTT to […] final concentration and assayed with the appropriate concentration of inhibitor in a total reaction volume of 25 μL. SYPRO Orange (Molecular Probes) was used as a fluorescence probe and detected at 530 nm. The data shown are representative of two independent experiments.

[4] = molecular target: T4, DCLK1-KD G532V (Homo sapiens, UniProt O15075, G532V); assay: Thermal shift stability assay, DCLK1-KD G532V; format: binding; conditions: XMD8-85 40 μM, versus DCLK1-KD WT
T4 construct: Truncated DCLK1 constructs, DCLK1-KD (residues 372-649); 8XHis tag with TEV protease cleavage site (N); made in house; host or cells: Escherichia coli C41(DE3)
T4 sequence (O15075 372-649 isoform O15075-2 G532V): T3 sequence (O15075 372-649 isoform O15075-2) with G161V
Protocol: as §4, with “Thermal shift stability assays were performed as described previously. DCLK1” for “DCLK1”

[5] = molecular target: T1, DCLK1-FL1Δ D511N; assay: Thermal shift stability assay, DCLK1-FL1Δ D511N; format: binding; conditions: 40 μM
Protocol: as §4

[6] = molecular target: T5, DCLK1-FL1Δ D511N tubulin polymerisation (MAP function) (Homo sapiens, UniProt O15075, D511N); assay: Tubulin polymerisation and pelleting assay with DCLK1-FL1Δ D511N; format: biochemical; conditions: 40 μM, pelleting / SDS-PAGE (Fig. 5d)
T5 construct: DCLK1-FL1Δ (residues 50-686); 8XHis tag with TEV protease cleavage site (N); made in house; host or cells: Escherichia coli C41(DE3)
T5 sequence (O15075 50-686 isoform O15075-2 D511N): T2 sequence (O15075 50-686 isoform O15075-2) with D462N
Protocol: Tubulin polymerisation assays were performed in buffer containing 80 mM PIPES at pH 6.9, 2.0 mM MgCl2, 0.5 mM EGTA, 2.5 mM β,γ-Methyleneguanosine 5’-triphosphate, and 10 μM tubulin and 5 μM DCLK1 for 1 h at 37 °C. For tubulin polymerisation in the presence of inhibitors, various concentrations of the inhibitors were first incubated with DCLK1 and allowed to stand on ice for 5 min before adding this mix to the tubulin polymerisation reaction. Following the tubulin polymerisation, the reaction mix was pelleted at 20,000 g for 20 min and the supernatant and the pellet fractions were run on a 12% SDS gel. The data shown are representative of two independent experiments.

[7] = molecular target: T5, DCLK1-FL1Δ D511N tubulin polymerisation (MAP function); assay: Fluorescence-based Tubulin Polymerisation Assay with DCLK1-FL1Δ D511N; format: biochemical; conditions: 80 μM, fluorescence (Fig. 5e)
Protocol: Tubulin polymerisation assay were performed using the Microtubule Polymerisation/Depolymerisation Fluorescence Kit (Cytoskeleton #BK011P) in accordance with the manufacturer’s instructions. DCLK1 (4 μΜ) was added to 50 μL tubulin reaction mix containing Buffer 1 (80 mM PIPES at pH 6.9, 2.0 mM MgCl2, 0.5 mM EGTA, 10 μM fluorescent reporter), guanosine triphosphate stock solution at 100 mM, and tubulin (10 mg/ml) stock solution, as described by the manufacturer. Paclitaxel, a control of tubulin polymerisation, was tested at 3 μM, and Νocodazole, a tubulin polymerisation inhibitor, was tested at 80 μΜ. DCLK1-IN-1 was tested at 20 and 40 μΜ with buffer alone as controls. Polymerisation leads to fluorescence enhancement due to incorporation of a fluorescence reporter into polymerising microtubules and was measured by excitation at 355 nm and emission at 460 nm. Readings were taken every 20 s on EnVision Multimode Plate Reader. Each condition was tested in duplicate with two independent batches of protein.

[8] = tested on: DCLK1; conditions: N-ethyl substitution at R4; cited from earlier work
[9] = KD, kinetic fitting (1:1 binding model), 18 °C, DCLK1 FL1Δ D511N immobilised, mean ± SEM
[10] = KD, steady state fitting, 18 °C, DCLK1 FL1Δ D511N immobilised, mean ± SEM
[11] = kinetic fitting (1:1 binding model)

Compound	Kd [1, 9]	Kd [1, 10]	kon, kinetic fitting ([1]; mean ± SEM)	koff [1]	kon [1]	Kd [2, 11]	Kd ([2]; steady state fitting)	kon, kinetic fitting [2]	koff [2]	binding by shift in melting temperature (ΔTm) [3]	effect of Gly532 to valine mutation on binding affinity [4]	binding to DCLK1 by thermal stability assay [5]	effect on tubulin polymerisation [6]	effect on tubulin polymerisation [7]	enhanced potency on DCLK1 compared to XMD8-85 [8]	Kd ([1]; KD (weak binding to DCLK1), top concentration 10 µM)
COc1cc(N2CCN(C)CC2)ccc1Nc1ncc2c(n1)N(C)c1ccccc1C(=O)N2C [XMD8-85]	0.008 µM	0.014 ± 0.001 µM	12.8 ± 0.5 1/Ms (x 10^5)	0.01 ± 0.001 s⁻¹	1.28e+06 ± 50000 M⁻¹ s⁻¹	0.0075 ± 0.0003 µM	0.012 ± 0.002 µM	22 ± 2 1/Ms (x 10^5)	0.016 ± 0.001 s⁻¹	bind DCLK1-KD	considerably reduces XMD8-85 binding affinity					
COC(=O)Nc1nc2ccc(C(=O)c3cccs3)cc2[nH]1 [nocodazole]												does not bind	inhibits tubulin polymerisation	inhibits tubulin polymerisation		
CCN1C(=O)c2ccccc2N(C)c2nc(Nc3ccc(N4CCN(C)CC4)cc3OC)ncc21 [FMF-03-055-1]	0.013 µM	0.024 ± 0.001 µM	11 ± 4 1/Ms (x 10^5)	0.014 ± 0.006 s⁻¹	1.1e+06 ± 400000 M⁻¹ s⁻¹	0.012 ± 0.002 µM	0.028 ± 0.002 µM	9.6 ± 0.6 1/Ms (x 10^5)	0.011 ± 0.001 s⁻¹						5 fold	
COc1cc(N2CCN(C)CC2)ccc1Nc1ncc2c(n1)N(C)c1ccc(C)cc1C(=O)N2CC(F)(F)F [DCLK1-NEG]							> 10 µM			severely reduced binding to DCLK1-KD						> 10 µM
